Reference: patent EP4603105A1, “PHARMACEUTICAL COMPOSITION CONTAINING CYCLIC COMPOUND HAVING SELECTIVE KRAS INHIBITORY EFFECT AGAINST HRAS AND NRAS” (CHUGAI SEIYAKU KABUSHIKI KAISHA, priority 2022, dated 2024)
*1 amine or outer side, *2 acyl side, *3 side chain or, on linkers, in order; H or OH if unused. Where a SMILES comes first, the peptide text is derived from it. Bridges are numbered along the chain shown (N, C = ends). [ ]: non-standard residue; d: D form. The star is where a group is joined. hPhe(3,5-F2-4-CF3) = N[C@@H](CCc1cc(F)c(C(F)(F)F)c(F)c1)C(=O)O; hPhe(3-Cl-4-CF3) = N[C@@H](CCc1ccc(C(F)(F)F)c(Cl)c1)C(=O)O; X43 = COCCCN([C@@H](Cc1ccc(C(F)(F)F)cc1)C(=O)[*:2])[*:1]; X18 = CCCCN([C@@H](Cc1ccc(C(F)(F)F)cc1)C(=O)[*:2])[*:1]; NPrPhe(4-CF3) = CCCN[C@@H](Cc1ccc(C(F)(F)F)cc1)C(=O)O; Pip(4,4-F2) = O=C(O)[C@@H]1CC(F)(F)CCN1; NMeGly(cPent) = CN[C@H](C(=O)O)C1CCCC1; Hyp = O=C(O)[C@@H]1C[C@@H](O)CN1; NMeD = CN[C@@H](CC(=O)O)C(=O)O; Ac4c(3-oxa) = NC1(C(=O)O)COC1; NMeL = CN[C@@H](CC(C)C)C(=O)O; Morpholide = C1CN(*)CCO1; NMeA = CN[C@@H](C)C(=O)O; Ac5c = NC1(C(=O)O)CCCC1; Aze = O=C(O)[C@@H]1CCN1; Ac4c = NC1(C(=O)O)CCC1; NEtG = CCNCC(=O)O; Sar = CNCC(=O)O

Assays:
[1] = tested on: human lung cancer strain NCI-H441; format: cell-based
In short: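 Step one: dispense the test compound in serial DMSO dilutions. Step three: add the reagent and measure […].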

[2] = biological target: GDP-bound NRAS wild-type protein (Homo sapiens, UniProt P01111); assay: Binding to NRAS by surface plasmon resonance (SPR), KD and KD ratio to KRAS
In short: (§1)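 Biotinylated GDP-bound RAS was captured at about 100–300 RU. Running buffer: HBS pH 7.4, 10 mM MgCl2, 10 µM GDP, 1 mM DTT, 0.01% Tween 20, 4% DMSO.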

[3] = biological target: HRAS wild-type protein (Homo sapiens, UniProt P01112); assay: Binding to HRAS by surface plasmon resonance (SPR), KD and KD ratio to KRAS
In short: as §1

[4] = ratio of the KD value with respect to GDP-bound NRAS wild-type protein to the KD value with respect to KRAS
[5] = ratio of the KD value with respect to HRAS wild-type protein to the KD value with respect to KRAS
[6] = ratio of KD for GDP-bound NRAS wild-type protein to KD for KRAS
[7] = ratio of KD for HRAS wild-type protein to KD for KRAS
[8] = ratio of KD value for GDP-bound NRAS wild-type protein to KD value for KRAS (SPR)
[9] = ratio of KD value for HRAS wild-type protein to KD value for KRAS (SPR)

GDP-bound NRAS wild-type protein, sequence (P01111 whole entry): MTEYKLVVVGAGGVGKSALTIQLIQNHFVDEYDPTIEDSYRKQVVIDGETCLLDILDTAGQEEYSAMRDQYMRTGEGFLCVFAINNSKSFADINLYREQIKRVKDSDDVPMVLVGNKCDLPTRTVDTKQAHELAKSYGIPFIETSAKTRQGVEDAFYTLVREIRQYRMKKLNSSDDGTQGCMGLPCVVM
HRAS wild-type protein, sequence (P01112 whole entry): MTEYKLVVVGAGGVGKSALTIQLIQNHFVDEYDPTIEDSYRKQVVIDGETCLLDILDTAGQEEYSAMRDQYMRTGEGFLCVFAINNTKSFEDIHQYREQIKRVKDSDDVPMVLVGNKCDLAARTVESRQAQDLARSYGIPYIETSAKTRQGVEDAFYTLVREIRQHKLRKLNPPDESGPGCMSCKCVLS

Structure (SMILES) | IC50 [1] | NRAS /KRAS [2, 4] | HRAS /KRAS [3, 5] | NRAS /KRAS [2, 6] | HRAS /KRAS [3, 7] | NRAS /KRAS [2, 8] | HRAS /KRAS [3, 9]
CC[C@H](C)[C@@H]1NC(=O)[C@H](CC)N(C)C(=O)C[C@@H](C(=O)N(C)C)N(C)C(=O)[C@H](C2CCCC2)N(C)C(=O)C2(CCC2)NC(=O)[C@@H]2C[C@@H](N3CCC(F)(F)CC3)CN2C(=O)[C@H](CCc2cc(F)c(C(F)(F)F)c(F)c2)NC(=O)CN(C)C(=O)[C@H](Cc2ccc(C(F)(F)F)cc2)N2CCCC[C@@H](C2=O)N(C)C(=O)CN(C)C1=O [PP0656] | 0.0265 µM | C (A compound having a KD ratio of 0.1 or more and less than 3 is denoted as C) | C (A compound having a KD ratio of 0.1 or more and less than 3 is denoted as C) | – | – | – | –
CCCCN1C(=O)[C@@H]2CCN2C(=O)[C@H](C)N(C)C(=O)[C@H]([C@@H](C)CC)NC(=O)[C@H](CC(C)C)N(C)C(=O)C[C@@H](C(=O)N2CCOCC2)N(C)C(=O)[C@H](C2CCCC2)N(C)C(=O)C2(CCCC2)NC(=O)[C@@H]2CCCN2C(=O)[C@H](CCc2ccc(C(F)(F)F)c(Cl)c2)NC(=O)CN(C)C(=O)[C@@H]1Cc1ccc(C(F)(F)F)cc1 [PP0106] ([NMeL]I[NMeA][Aze][X18][Sar][hPhe(3-Cl-4-CF3)]P[Ac5c][NMeGly(cPent)][NMeD]-Morpholide; lactam N-11) | 0.0123 µM | – | – | C (A compound having a KD ratio of 0.1 or more and less than 3 is denoted as C) | B (a compound having 3 or more and less than 10 is denoted as B) | – | –
CCCN1C(=O)CN(C)C(=O)CN(CC)C(=O)[C@H]([C@@H](C)CC)NC(=O)[C@H](CC(C)C)N(C)C(=O)C[C@@H](C(=O)N2CCOCC2)N(C)C(=O)[C@H](C2CCCC2)N(C)C(=O)C2(CCCC2)NC(=O)[C@@H]2CC(F)(F)CCN2C(=O)[C@H](CCc2ccc(C(F)(F)F)c(Cl)c2)NC(=O)CN(C)C(=O)[C@@H]1Cc1ccc(C(F)(F)F)cc1 [PP0298] ([NMeL]I[NEtG][Sar][NPrPhe(4-CF3)][Sar][hPhe(3-Cl-4-CF3)][Pip(4,4-F2)][Ac5c][NMeGly(cPent)][NMeD]-Morpholide; lactam N-11) | 0.0411 µM | – | – | B (a compound having 3 or more and less than 10 is denoted as B) | C (A compound having a KD ratio of 0.1 or more and less than 3 is denoted as C) | – | –
CCC[C@H]1C(=O)N[C@@H]([C@@H](C)CC)C(=O)N(C)CC(=O)N(C)[C@H]2C/C=C\CCN(C2=O)[C@@H](Cc2ccc(C)cc2)C(=O)N(C)CC(=O)N[C@@H](CCc2ccc(C(F)(F)F)c(Cl)c2)C(=O)N2C[C@H](OCC)C[C@H]2C(=O)NC2(CCC2)C(=O)N(C)[C@@H](C2CCCC2)C(=O)N(C)[C@H](C(=O)N(C)CC)CC(=O)N1C [PP1895] | 0.0156 µM | – | – | – | – | A (a compound having 10 or more and less than 20 is denoted as A) | B (a compound having 3 or more and less than 10 is denoted as B)
CCO[C@@H]1C[C@H]2C(=O)NC3(CC(C)(C)C3)C(=O)N(C)[C@@H](C3CCCC3)C(=O)N(C)[C@H](C(=O)N3CCOCC3)CC(=O)N(C)[C@@H](COC)C(=O)N[C@@H]([C@@H](C)CC)C(=O)N(C)CC(=O)N(C)[C@H]3CCCCCN(C3=O)[C@@H](Cc3ccc(C(F)(F)F)cc3)C(=O)N(C)CC(=O)N[C@@H](CCc3cc(F)c(C(F)(F)F)c(F)c3)C(=O)N2C1 [PP0844] | 0.0502 µM | – | – | B (a compound having 3 or more and less than 10 is denoted as B) | B (a compound having 3 or more and less than 10 is denoted as B) | – | –
CC[C@H](C)[C@@H]1NC(=O)[C@H](CC(C)C)N(C)C(=O)C[C@@H](C(=O)N2CCOCC2)N(C)C(=O)[C@H](C2CCCC2)N(C)C(=O)C2(CCCC2)NC(=O)[C@@H]2CCCN2C(=O)[C@H](CCc2ccc(C(F)(F)F)c(Cl)c2)NC(=O)CN(C)C(=O)[C@H](Cc2ccc(C(F)(F)F)cc2)N(CCCOC)C(=O)[C@@H]2CCN2C(=O)[C@H](C)N(C)C1=O [PP0119] ([NMeL]I[NMeA][Aze][X43][Sar][hPhe(3-Cl-4-CF3)]P[Ac5c][NMeGly(cPent)][NMeD]-Morpholide; lactam N-11) | 0.0016 µM | – | – | C (A compound having a KD ratio of 0.1 or more and less than 3 is denoted as C) | C (A compound having a KD ratio of 0.1 or more and less than 3 is denoted as C) | – | –
CC(C)C[C@H]1C(=O)N[C@@H](C2CCC2)C(=O)N(C)CC(=O)N(C)[C@H]2CCCCCN(C2=O)[C@@H](Cc2ccc(C(F)(F)F)cc2)C(=O)N(C)CC(=O)N[C@@H](CCc2cc(F)c(C(F)(F)F)c(F)c2)C(=O)N2CCC[C@H]2C(=O)NC2(CCCC2)C(=O)N(C)[C@@H](C2CCCC2)C(=O)N(C)[C@H](C(=O)N2CCOCC2)CC(=O)N1C [PP0522] | 0.083 µM | B (a compound having 3 or more and less than 10 is denoted as B) | B (a compound having 3 or more and less than 10 is denoted as B) | – | – | – | –
CCC[C@H]1C(=O)N[C@@H]([C@@H](C)CC)C(=O)N(C)CC(=O)N(C)[C@H]2C/C=C\CCN(C2=O)[C@@H](Cc2ccc(C(F)(F)F)cc2)C(=O)N(C)CC(=O)N[C@@H](CCc2cc(F)c(C(F)(F)F)c(F)c2)C(=O)N2C[C@H](OCC)C[C@H]2C(=O)NC2(CCC2)C(=O)N(C)[C@@H](C2CCCC2)C(=O)N(CCC)[C@H](C(=O)N(C)C)CC(=O)N1C [PP1769] | 0.0129 µM | – | – | – | – | A (a compound having 10 or more and less than 20 is denoted as A) | A (a compound having 10 or more and less than 20 is denoted as A)
CCCN1C(=O)CN(C)C(=O)[C@@H]2CCN2C(=O)[C@H]([C@@H](C)CC)NC(=O)[C@H](CC(C)C)N(C)C(=O)C[C@@H](C(=O)N2CCOCC2)N(C)C(=O)[C@H](C2CCCC2)N(C)C(=O)C2(COC2)NC(=O)[C@@H]2CCCN2C(=O)[C@H](CCc2cc(F)c(C(F)(F)F)c(F)c2)NC(=O)CN(C)C(=O)[C@@H]1Cc1ccc(C(F)(F)F)cc1 [PP0782] ([NMeL]I[Aze][Sar][NPrPhe(4-CF3)][Sar][hPhe(3,5-F2-4-CF3)]P[Ac4c(3-oxa)][NMeGly(cPent)][NMeD]-Morpholide; lactam N-11) | 0.425 µM | – | – | B (a compound having 3 or more and less than 10 is denoted as B) | B (a compound having 3 or more and less than 10 is denoted as B) | – | –
CCC[C@H]1C(=O)N[C@@H]([C@@H](C)CC)C(=O)N(C2CC2)CC(=O)N(C)[C@H]2C/C=C\CCN(C2=O)[C@@H](Cc2ccc(C(F)(F)F)cc2)C(=O)N(C)CC(=O)N[C@@H](CCc2cc(F)c(C(F)(F)F)c(F)c2)C(=O)N2C[C@H](OCC)C[C@H]2C(=O)N(C)C2(CCC2)C(=O)N(C)[C@@H](C2CCCC2)C(=O)N(C)[C@H](C(=O)N2CCCCC2)CC(=O)N1C [PP3110] | 0.0699 µM | – | – | A (a compound having 10 or more and less than 20 is denoted as A) | A (a compound having 10 or more and less than 20 is denoted as A) | – | –
CCCN1C(=O)[C@@H]2CCN2C(=O)[C@H](C)N(C)C(=O)[C@H]([C@@H](C)CC)NC(=O)[C@H](CC(C)C)N(C)C(=O)C[C@@H](C(=O)N2CCOCC2)NC(=O)[C@H](C2CCCC2)N(C)C(=O)C2(CCC2)NC(=O)[C@@H]2C[C@@H](OCC)CN2C(=O)[C@H](CCc2ccc(C(F)(F)F)c(Cl)c2)NC(=O)CN(C)C(=O)[C@@H]1Cc1ccc(C(F)(F)F)cc1 [PP0348] ([NMeL]I[NMeA][Aze][NPrPhe(4-CF3)][Sar][hPhe(3-Cl-4-CF3)][Hyp](Et)[Ac4c][NMeGly(cPent)]D-Morpholide; lactam N-11) | 0.0151 µM | – | – | C (A compound having a KD ratio of 0.1 or more and less than 3 is denoted as C) | B (a compound having 3 or more and less than 10 is denoted as B) | – | –
